Assay results taken from article PMC10034409 (Frontiers in Pharmacology, 2023).
“Also recorded” adds a separate entry of the source.

What was measured:
BChE = target: T1, BChE (Homo sapiens, UniProt P06276); assay: biochemical; format: biochemical; details: for Ki: mean ± SEM, mean of four values from Lineweaver-Burk plot, its secondary re-plots and Dixon plot
T1 construct: purchased Sigma Aldrich (Steinheim, Germany)
Procedure: (§1) The test compounds were prepared fresh immediately before each experiment. Test compounds were added to 150 µl […] phosphate buffer (pH 8.0), 200 µl methanol, and 20 µl of the test enzymes and were incubated at 25°C for 15 min. A sample with an equal amount of solvent (ethanol) in place of the test compounds served as a negative control. 10 μl of DTNB reagent was added to the samples, and the reaction was initiated by adding 10 μl acetylthiocholine (ATCh) or butyrylthiocholine (BTCh) for the estimation of AChE and BChE, respectively. All the experiments were conducted in triplicate. […] The rate of enzyme inhibition was calculated as the change in optical density per minute (OD/min).
(§2) The enzyme inhibition activities of serially diluted concentrations of test compounds were measured, and the IC50 values were calculated using EZ-Fit Enzyme Kinetics Program.
(§3) The dissociation constant (Ki) values, which signified the dissociation of the enzyme-inhibitor complex into free enzyme and inhibitor, were also determined. […] These velocities were obtained over a range of substrate concentrations between 0.1 and 0.4 mM for ATCh and 0.05 and 0.2 mM for BTCh. The assay conditions for measurement of the residual activities of all inhibitors were identical to the aforementioned spectrophotometric assay procedure, except that the fixed concentrations of inhibiting compounds were used in the assay medium. Assays were conducted in triplicate at each concentration of the inhibitor.
(§4) The inhibition patterns of tested coumarins were determined by the graphical views of Dixon plots, Lineweaver-Burk plots, and their secondary re-plots. […] The linear regression analysis values, correlation coefficient, slope, intercept, and standard errors were obtained using the same software. Two different methods were applied to monitor the effects of the test sample on both Michaelis constant (K m ) and maximum velocity (V max) values. […] The secondary re-plots of the Lineweaver-Burk were also constructed in two ways; firstly, the reciprocal of apparent V max (1/V maxapp ) values were determined at each intersection point for every inhibitor concentration line on the y-axis of the Lineweaver-Burk plot and then re-plotted against different concentrations of the respective inhibitor. […] The secondary re-plot of the Dixon plot was constructed as the slope of each line of substrate concentration in the original Dixon plot against the reciprocals of substrate concentrations.

AChE = target: T2, AChE (Homo sapiens, UniProt P22303); assay: biochemical; format: biochemical; details: for AChE IC50 / IC50: mean ± SEM of 3 experiments; for Ki: mean ± SEM, mean of four values from Lineweaver-Burk plot, its secondary re-plots and Dixon plot
T2 construct: purchased Sigma Aldrich (Steinheim, Germany)
Procedure: as §1, §2, §3, §4

T2 sequence (P22303 32-614): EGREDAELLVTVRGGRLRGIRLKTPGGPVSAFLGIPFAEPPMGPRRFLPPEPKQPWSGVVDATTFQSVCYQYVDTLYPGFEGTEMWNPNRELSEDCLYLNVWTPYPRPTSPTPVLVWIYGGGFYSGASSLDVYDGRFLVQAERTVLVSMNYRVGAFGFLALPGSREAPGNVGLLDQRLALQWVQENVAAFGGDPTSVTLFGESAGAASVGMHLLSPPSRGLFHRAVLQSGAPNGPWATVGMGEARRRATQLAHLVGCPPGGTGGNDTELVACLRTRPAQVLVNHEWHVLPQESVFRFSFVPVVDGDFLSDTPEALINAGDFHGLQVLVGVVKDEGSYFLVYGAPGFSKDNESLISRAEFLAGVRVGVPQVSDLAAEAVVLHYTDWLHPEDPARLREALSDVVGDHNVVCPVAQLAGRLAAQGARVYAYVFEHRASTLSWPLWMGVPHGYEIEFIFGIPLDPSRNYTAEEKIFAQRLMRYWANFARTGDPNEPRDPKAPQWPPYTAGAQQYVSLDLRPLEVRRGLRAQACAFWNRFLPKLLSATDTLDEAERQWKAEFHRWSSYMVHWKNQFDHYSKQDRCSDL
T1 sequence (P06276 29-602): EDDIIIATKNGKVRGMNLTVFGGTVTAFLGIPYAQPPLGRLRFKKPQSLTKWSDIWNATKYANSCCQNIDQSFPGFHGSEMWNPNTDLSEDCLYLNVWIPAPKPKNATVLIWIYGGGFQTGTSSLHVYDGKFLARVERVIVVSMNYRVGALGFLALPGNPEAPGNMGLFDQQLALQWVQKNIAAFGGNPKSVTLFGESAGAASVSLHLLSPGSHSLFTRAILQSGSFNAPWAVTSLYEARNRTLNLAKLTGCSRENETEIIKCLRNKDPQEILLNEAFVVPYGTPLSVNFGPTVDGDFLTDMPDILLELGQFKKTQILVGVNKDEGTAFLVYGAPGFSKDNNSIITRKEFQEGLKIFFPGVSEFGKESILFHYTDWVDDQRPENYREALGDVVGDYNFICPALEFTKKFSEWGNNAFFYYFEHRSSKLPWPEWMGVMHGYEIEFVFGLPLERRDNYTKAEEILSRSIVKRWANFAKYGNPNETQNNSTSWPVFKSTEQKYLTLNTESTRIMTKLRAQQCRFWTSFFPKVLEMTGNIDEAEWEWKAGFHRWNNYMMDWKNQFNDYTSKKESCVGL

SMILES	BChE IC50 (BChE; mean ± SEM of 3 experiments)	IC50 (BChE; mean ± SEM of 3 experiments) [µM]	AChE IC50 (AChE)	AChE IC50 (AChE; listed as 2′-O-ethylmurrangatin (1))	Type of inhibition of BChE (in words) (BChE)	Ki (BChE) [µM]	Type of inhibition of AChE (in words) (AChE)	IC50 (AChE) [µM]	Ki (AChE) [µM]	BChE Type of inhibition (BChE; table abbreviations)	AChE Type of inhibition (AChE; table abbreviations)
C=C(C)[C@@H](OCC)[C@@H](O)c1c(OC)ccc2ccc(=O)oc12 [2′-O-Ethylmurrangatin (1), 2′-O-ethylmurrangatin]	very weak activity	843 ± 13	No activity upto 1 mM	not active at 1 mM conc; also recorded: did not show any inhibition	–	–	–	–	–	–	–
COc1ccc2ccc(=O)oc2c1C(OC(=O)CC(C)C)C(=O)C(C)C (centres unmarked) [Paniculatin (3), paniculatin]	–	–	–	–	mixed-type inhibitor	22 ± 0.6	mixed-type inhibitor	31.6 ± 0.03	43 ± 0.65	–	–
COc1ccc2ccc(=O)oc2c1C(O)C(=O)C(C)C (centres unmarked) [Murranganone (2), murranganone]	–	74.3 ± 0.75	–	–	mixed-type inhibition	22 ± 0.44	pure non-competitive inhibition	79.1 ± 2.02	50 ± 0.58	LM ^e	NC ^d
